Earlier results on 19 molecules are cited in patent publication US7670617B2, “Sequential drug delivery systems” (CIMA Labs Inc., priority 2001, dated 2010).

The pKa is the pH at which an ionisable group is half protonated.

Conditions in one data set: not given
Regarding `CC(C)C[C@H]1C(=O)N2CCC[C@H]2[C@]2(O)O[C@](NC(=O)[C@@H]3C=C4c5cccc6[nH]c(Br)c(c56)C[C@H]4N(C)C3)(C(C)C)C(=O)N12` [Bromocriptine], the pKa is on record as 4.9.

Turning to `CC(C)(C)NC(=O)[C@@H]1C[C@@H]2CCCC[C@@H]2CN1C[C@@H](O)[C@H](Cc1ccccc1)NC(=O)[C@H](CC(N)=O)NC(=O)c1ccc2ccccc2n1` [Saquinavir], the pKa was 7.

For the molecule `CN1CCc2cccc3c2[C@H]1Cc1ccc(O)c(O)c1-3` [Apomorphine], the pKa is recorded as 7.

For another data set the following is noted: in animals.
Turning to `CC(NC(C)(C)C)C(=O)c1cccc(Cl)c1.Cl` (centres unmarked) [Bupropion:HCI], the “BIOAVAILABILITY (%)” value is 5%-20%.

For the next data set the following is noted: Nasal Spray.
As for `O=C(O)C(O)C(O)C(=O)O.Oc1ccc2c(c1)[C@@]13CCCC[C@@]1(O)[C@@H](C2)N(CC1CCC1)CC3` [Butorphanol Tartrate], the “BIOAVAILABILITY (%)” value is recorded as 60%-70%.

The data set is the same for the next values; noted with them: in vivo.
In the case of `CC(C)C[C@H]1C(=O)N2CCC[C@H]2[C@]2(O)O[C@](NC(=O)[C@@H]3C=C4c5cccc6[nH]c(Br)c(c56)C[C@H]4N(C)C3)(C(C)C)C(=O)N12` [Bromocriptine], the “BIOAVAILABILITY (%)” value is listed as 28%.

For the molecule `CC(C)(C)NCC(O)c1cc(O)cc(O)c1` (centres unmarked) [Terbutaline sulphate], the “BIOAVAILABILITY (%)” value is 30-70%.

As for `Cc1nccn1CC1CCc2c(c3ccccc3n2C)C1=O.Cl` (centres unmarked) [Ondansetron:HCI], the “BIOAVAILABILITY (%)” value is 55%.

For the molecule `CC(C)NCC(O)COc1cccc2ccccc12.Cl` (centres unmarked) [Propranolol:HCI], the “BIOAVAILABILITY (%)” value is on record as 26%.

In the case of `CN(C)CCC=C1c2ccccc2COc2ccccc21` [Doxepin], the “BIOAVAILABILITY (%)” value is recorded as 27 ± 10%.

`CCOC(=O)[C@H](CCc1ccccc1)N[C@@H](C)C(=O)N1Cc2cc(OC)c(OC)cc2C[C@H]1C(=O)O` [Moexipril]: the “BIOAVAILABILITY (%)” value was 13%.

As to `Oc1ccc2c3c1O[C@H]1[C@@H](O)CC[C@@]4(O)[C@@H](C2)N(CC2CCC2)CC[C@]314` [Nalbuphine], the “BIOAVAILABILITY (%)” value was 16 (±8) %.

For `CCOC(=O)[C@H](CCc1ccccc1)N[C@H]1CCc2ccccc2N(CC(=O)O)C1=O.Cl` [Benazepril:HCI], the “BIOAVAILABILITY (%)” value was 37%.

Regarding `CN1CCCC1c1cccnc1` (centres unmarked) [Nicotine], the “BIOAVAILABILITY (%)” value is on record as 16.7 (±8.6%).

Regarding `CCOC(=O)[C@H](CCc1ccccc1)N[C@@H](C)C(=O)N1CCC[C@H]1C(=O)O` [Enalapril], the “BIOAVAILABILITY (%)” value was 41-60%.

On to `CCOC(=O)[C@H](CCc1ccccc1)N[C@@H](C)C(=O)N1Cc2ccccc2C[C@H]1C(=O)O.Cl` [Quinapril•HCI], for which the “BIOAVAILABILITY (%)” value was 60%.

For `CC(CCc1ccccc1)NCC(O)c1ccc(O)c(C(N)=O)c1` (centres unmarked) [Labetalol], the “BIOAVAILABILITY (%)” value is recorded as 18 ± 5%.

As to `COc1cc2nc(N3CCN(C(=O)C4COc5ccccc5O4)CC3)nc(N)c2cc1OC` (centres unmarked) [Doxazosin], the “BIOAVAILABILITY (%)” value is given as 65%.

As to `COc1ccccc1OCCNCC(O)COc1cccc2[nH]c3ccccc3c12` (centres unmarked) [Carvedilol], the “BIOAVAILABILITY (%)” value was 25-35%.

Take `CC(C)(C)NC(=O)[C@H]1CC[C@H]2[C@@H]3CC[C@H]4NC(=O)C=C[C@]4(C)[C@H]3CC[C@]12C` [Finasteride]: the “BIOAVAILABILITY (%)” value was 63%.
